Patent US12209081B2 (Katholieke Universiteit Leuven, priority 2020, dated 2025)

Target: mouse TRPM3α2 (mTRPM3) ion channel (Mus musculus (Mouse), UniProt J9SQF3)
Assay: TRPM3 ion channel driven Ca2+ uptake, Fluo-4 AM assay, mTRPM3alpha2 overexpressing flip-in HEK293 cells stimulated with pregnenolone sulfate
Format: cell-based
Settings: PS (50 μM) stimulated, cpds. 667-751
Summary of the method: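 Read-out is Ca2+ influx via Fluo-4 AM fluorescence at 485/535 nm, taken right after seeding ~2000 cells/well onto compound with 50 μM PS. Inhibition computed from RFU between vehicle-stimulated and positive-control-inhibitor wells; cells were mTRPM3α2-overexpressing flip-in HEK293.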

Sequence of mouse TRPM3α2 (mTRPM3) ion channel (J9SQF3 other isoform, or with tags, fused parts or gaps): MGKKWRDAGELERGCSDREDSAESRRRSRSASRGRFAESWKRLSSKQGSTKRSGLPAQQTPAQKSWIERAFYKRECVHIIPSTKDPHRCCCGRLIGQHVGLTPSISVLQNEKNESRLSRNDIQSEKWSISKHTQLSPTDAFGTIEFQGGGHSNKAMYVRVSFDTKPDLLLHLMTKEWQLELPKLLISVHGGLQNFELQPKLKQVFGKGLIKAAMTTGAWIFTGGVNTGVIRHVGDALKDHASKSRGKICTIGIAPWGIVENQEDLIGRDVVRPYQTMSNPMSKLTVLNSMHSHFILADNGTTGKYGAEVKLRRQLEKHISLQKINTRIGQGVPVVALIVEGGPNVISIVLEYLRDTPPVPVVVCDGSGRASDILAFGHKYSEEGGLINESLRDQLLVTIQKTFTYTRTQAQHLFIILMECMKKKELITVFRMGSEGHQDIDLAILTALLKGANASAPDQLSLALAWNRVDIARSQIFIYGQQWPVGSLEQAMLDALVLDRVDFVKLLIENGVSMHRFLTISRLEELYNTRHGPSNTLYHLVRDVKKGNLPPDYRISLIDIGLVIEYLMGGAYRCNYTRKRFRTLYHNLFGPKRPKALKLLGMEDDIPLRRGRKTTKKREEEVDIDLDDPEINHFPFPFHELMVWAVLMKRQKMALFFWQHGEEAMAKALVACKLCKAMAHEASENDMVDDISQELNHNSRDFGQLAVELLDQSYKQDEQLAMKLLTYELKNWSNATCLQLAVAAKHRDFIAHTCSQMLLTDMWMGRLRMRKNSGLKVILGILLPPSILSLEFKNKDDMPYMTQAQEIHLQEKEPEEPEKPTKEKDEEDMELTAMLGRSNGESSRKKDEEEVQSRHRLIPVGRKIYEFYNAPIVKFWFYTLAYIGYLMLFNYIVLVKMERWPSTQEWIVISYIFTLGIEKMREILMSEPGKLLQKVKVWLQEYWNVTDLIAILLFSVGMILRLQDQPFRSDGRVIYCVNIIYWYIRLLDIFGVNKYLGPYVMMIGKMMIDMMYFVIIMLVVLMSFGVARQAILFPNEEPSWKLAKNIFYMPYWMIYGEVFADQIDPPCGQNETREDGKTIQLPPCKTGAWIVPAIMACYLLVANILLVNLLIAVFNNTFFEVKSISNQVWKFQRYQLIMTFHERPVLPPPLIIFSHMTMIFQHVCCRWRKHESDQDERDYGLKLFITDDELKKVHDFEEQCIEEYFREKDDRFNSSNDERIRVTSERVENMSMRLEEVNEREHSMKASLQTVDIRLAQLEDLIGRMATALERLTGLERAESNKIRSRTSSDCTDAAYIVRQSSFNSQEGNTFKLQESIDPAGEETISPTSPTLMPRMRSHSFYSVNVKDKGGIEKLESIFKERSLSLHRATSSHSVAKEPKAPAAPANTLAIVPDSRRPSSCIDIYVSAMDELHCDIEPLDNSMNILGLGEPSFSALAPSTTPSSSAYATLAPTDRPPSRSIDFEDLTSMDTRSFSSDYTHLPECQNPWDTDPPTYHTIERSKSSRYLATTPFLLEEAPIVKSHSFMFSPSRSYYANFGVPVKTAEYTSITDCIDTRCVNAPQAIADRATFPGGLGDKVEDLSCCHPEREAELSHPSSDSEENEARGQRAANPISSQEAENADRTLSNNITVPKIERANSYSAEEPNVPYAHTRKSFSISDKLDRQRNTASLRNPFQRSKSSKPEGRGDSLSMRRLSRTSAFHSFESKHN

Row | Structure (SMILES) | IC50 [nM]
1 | Cc1ncc(COc2ccc3oc(C)c(C(=O)NC4(C(F)F)CCC4)c3c2)s1 [compound 683, N-(1-(Difluoromethyl)cyclobutyl)-2-methyl-5-((2-methylthiazol-5-yl)methoxy)benzofuran-3-carboxamide] | < 1000
2 | Cc1cnc(COc2ccc3oc(C)c(C(=O)N[C@@H](CO)C(N)=O)c3c2)s1 [compound 684, (S)-N-(1-Amino-3-hydroxy-1-oxopropan-2-yl)-2-methyl-5-((5-methylthiazol-2-yl)methoxy)benzofuran-3-carboxamide] | < 1000
3 | Cc1oc2ccc(OCc3ccnn3CC3CC3)cc2c1C(=O)N[C@@H](CO)C(N)=O [compound 690, (S)-N-(1-amino-3-hydroxy-1-oxopropan-2-yl)-5-((1-(cyclopropylmethyl)-1H-pyrazol-5-yl)methoxy)-2-methylbenzofuran-3-carboxamide] | < 1000
4 | Cc1oc2ccc(OCc3scnc3C(F)(F)F)cc2c1C(=O)N[C@@H](CO)C(N)=O [compound 694, (S)-N-(1-Amino-3-hydroxy-1-oxopropan-2-yl)-2-methyl-5-((4-(trifluoromethyl)thiazol-5-yl)methoxy)benzofuran-3-carboxamide] | < 1000
5 | Cc1oc2ccc(OCc3nccs3)cc2c1C(=O)N[C@@H](CO)C(N)=O [compound 695, (S)-N-(1-Amino-3-hydroxy-1-oxopropan-2-yl)-2-methyl-5-(thiazol-2-ylmethoxy)benzofuran-3-carboxamide] | < 1000
6 | Cc1ccc(COc2ccc3oc(C)c(C(=O)N[C@@H](CO)C(N)=O)c3c2)nc1 [compound 700, (S)-N-(1-Amino-3-hydroxy-1-oxopropan-2-yl)-2-methyl-5-((5-methylpyridin-2-yl)methoxy)benzofuran-3-carboxamide] | < 1000
7 | Cc1oc2ccc(OCc3cccnc3C3CC3)cc2c1C(=O)N[C@@H](CO)C(N)=O [compound 702, (S)-N-(1-Amino-3-hydroxy-1-oxopropan-2-yl)-5-((2-cyclopropylpyridin-3-yl)methoxy)-2-methylbenzofuran-3-carboxamide] | < 1000
8 | Cc1oc2ccc(OCc3cccnc3N3CCC3)cc2c1C(=O)N[C@@H](CO)C(N)=O [compound 706, (S)-N-(1-amino-3-hydroxy-1-oxopropan-2-yl)-5-((2-(azetidin-1-yl)pyridin-3-yl)methoxy)-2-methylbenzofuran-3-carboxamide] | < 1000
9 | Cc1oc2ccc(OCc3cccnc3OC3CC3)cc2c1C(=O)NC1(CO)CCOCC1 [compound 711, 5-((2-cyclopropoxypyridin-3-yl)methoxy)-N-(4-(hydroxymethyl)tetrahydro-2H-pyran-4-yl)-2-methylbenzofuran-3-carboxamide] | < 1000
10 | Cc1oc2ccc(OCc3cnccn3)cc2c1C(=O)N[C@@H](CO)C(N)=O [compound 714, (S)-N-(1-Amino-3-hydroxy-1-oxopropan-2-yl)-2-methyl-5-(pyrazin-2-ylmethoxy)benzofuran-3-carboxamide] | < 1000
11 | COc1ncccc1COc1ccc2oc(C)c(C(=O)N[C@@H](CO)C(N)=O)c2c1 [compound 715, (S)-N-(1-amino-3-hydroxy-1-oxopropan-2-yl)-5-((2-methoxypyridin-3-yl)methoxy)-2-methylbenzofuran-3-carboxamide] | < 1000
12 | Cc1oc2ccc(OCc3ccncc3)cc2c1C(=O)N[C@@H](CO)C(N)=O [compound 716, (S)-N-(1-Amino-3-hydroxy-1-oxopropan-2-yl)-2-methyl-5-(pyridin-4-ylmethoxy)benzofuran-3-carboxamide] | < 1000
13 | Cc1oc2ccc(OCc3ncccc3C(F)F)cc2c1C(=O)NC1CCNCC1(F)F (stereo not shown) [compound 717, 5-((3-(Difluoromethyl)pyridin-2-yl)methoxy)-N-(3,3-difluoropiperidin-4-yl)-2-methylbenzofuran-3-carboxamide] | < 1000
14 | Cc1oc2ccc(OCc3ccccn3)cc2c1C(=O)N[C@H](C(N)=O)[C@@H](C)O [compound 718, N-((2S,3R)-1-amino-3-hydroxy-1-oxobutan-2-yl)-2-methyl-5-(pyridin-2-ylmethoxy)benzofuran-3-carboxamide] | < 1000
15 | Cc1ncsc1COc1ccc2oc(C)c(C(=O)NC3(C(F)F)CCC3)c2c1 [compound 721, N-(1-(Difluoromethyl)cyclobutyl)-2-methyl-5-((4-methylthiazol-5-yl)methoxy)benzofuran-3-carboxamide] | < 1000

Second part, the compound after the results:

Row | IC50 [nM] | Structure (SMILES)
16 | < 1000 | Cc1oc2ccc(OCc3ccn(C)n3)cc2c1C(=O)N[C@@H](CO)C(N)=O [compound 686, (S)-N-(1-Amino-3-hydroxy-1-oxopropan-2-yl)-2-methyl-5-((1-methyl-1H-pyrazol-3-yl)methoxy)benzofuran-3-carboxamide]
17 | < 1000 | Cc1oc2ccc(OCc3ccnn3CC(F)(F)F)cc2c1C(=O)N[C@@H](CO)C(N)=O [compound 688, (S)-N-(1-Amino-3-hydroxy-1-oxopropan-2-yl)-2-methyl-5-((1-(2,2,2-trifluoroethyl)-1H-pyrazol-5-yl)methoxy)benzofuran-3-carboxamide]
18 | < 1000 | Cc1oc2ccc(OCc3cn(C)nc3C(F)(F)F)cc2c1C(=O)N[C@@H](CO)C(N)=O [compound 692, (S)-N-(1-Amino-3-hydroxy-1-oxopropan-2-yl)-2-methyl-5-((1-methyl-3-(trifluoromethyl)-1H -pyrazol-4-yl)methoxy)benzofuran-3-carboxamide]
19 | < 1000 | Cc1oc2ccc(OCc3ccc(F)cn3)cc2c1C(=O)N[C@H](C(N)=O)[C@@H](C)O [compound 696, N-((2S,3R)-1-amino-3-hydroxy-1-oxobutan-2-yl)-5-((5-fluoropyridin-2-yl)methoxy)-2-methylbenzofuran-3-carboxamide]
20 | < 1000 | Cc1oc2ccc(OCc3cncs3)cc2c1C(=O)N[C@@H](CO)C(N)=O [compound 697, (S)-N-(1-Amino-3-hydroxy-1-oxopropan-2-yl)-2-methyl-5-(thiazol-5-ylmethoxy)benzofuran-3-carboxamide]
21 | < 1000 | Cc1oc2ccc(OCc3cnn(C)c3)cc2c1C(=O)N[C@@H](CO)C(N)=O [compound 698, (S)-N-(1-Amino-3-hydroxy-1-oxopropan-2-yl)-2-methyl-5-((1-methyl-1H-pyrazol-4-yl)methoxy)benzofuran-3-carboxamide]
22 | < 1000 | Cc1oc2ccc(OCc3ncccc3C3CC3)cc2c1C(=O)N[C@@H](CO)C(N)=O [compound 704, (S)-N-(1-Amino-3-hydroxy-1-oxopropan-2-yl)-5-((3-cyclopropylpyridin-2-yl)methoxy)-2-methylbenzofuran-3-carboxamide]
23 | < 1000 | Cc1ncc(COc2ccc3oc(C)c(C(=O)N[C@@H](CO)C(N)=O)c3c2)cn1 [compound 708, (S)-N-(1-Amino-3-hydroxy-1-oxopropan-2-yl)-2-methyl-5-((2-methylpyrimidin-5-yl)methoxy)benzofuran-3-carboxamide]
24 | < 1000 | Cc1oc2ccc(OCc3cccnc3OC3CC3)cc2c1C(=O)N[C@@H](CO)C(N)=O [compound 710, (S)-N-(1-amino-3-hydroxy-1-oxopropan-2-yl)-5-((2-cyclopropoxypyridin-3-yl)methoxy)-2-methylbenzofuran-3-carboxamide]
25 | < 1000 | Cc1oc2ccc(OCc3ncccn3)cc2c1C(=O)N[C@@H](CO)C(N)=O [compound 712, (S)-N-(1-Amino-3-hydroxy-1-oxopropan-2-yl)-2-methyl-5-(pyrimidin-2-ylmethoxy)benzofuran-3-carboxamide]
